Tests used:
[1] = biological target: T1, pseudo-kinase domain (JH2, amino-acids 536-812) of human V617F mutant JAK2 (Homo sapiens, UniProt O60674, F794H/V617F/W659A/W777A); assay: JAK2 LanthaScreen JH2-V617F Binding Assay; settings: 50 nM Fluorescent JAK2-JH2 Tracer, 1 hour at 25° C.; read-out: JH2 BIND V617F (Ex. C)
T1 construct: JH2, amino-acids 536-812 with 3 surface mutations W659A, W777A, F794H; His (C); purchased BPS Bioscience 79498; host or cells: baculovirus expression system
Procedure: Example C. JAK2 LanthaScreen JH2-V617F Binding Assay
(§1) JAK2 JH2-V617F binding assay utilizes pseudo-kinase domain (JH2, amino-acids 536-812 with 3 surface mutations W659A, W777A, F794H) of human V617F mutant JAK2 expressed as C-terminal His-Avi-tagged, biotinylated protein in a baculovirus expression system (BPS Bioscience, Catalog #79498). The assay was conducted in black 384-well polystyrene plates in a final reaction volume of 20 μL. JAK2 JH2-V617F (0.26 nM) was incubated with compounds (100 nL serially diluted in DMSO) in the presence of 50 nM Fluorescent JAK2-JH2 Tracer (MedChem Express Catalog #HY-102055) and 0.25 nM Streptavidin-Tb cryptate (Cisbio Part #610SATLB) in assay buffer (50 mM Tris, pH=7.5, 10 mM MgCl2, 0.01% Brij-35, 0.1% BSA, 1 mM EGTA, 5% Glycerol and 5 mM DTT). Non-specific binding was accessed in the presence of 2 mM ATP. After incubation for 1 hour at 25° C., LanthaScreen signals were read on a PHERAstar FS plate reader (BMG LABTECH). Data was analyzed with IDBS Xlfit and GraphPad Prism 5.0 software using a four parameter dose response curve to determine IC50 for each compound.

[2] = biological target: T2, pseudo-kinase domain (JH2, amino-acids 536-812) of human Wild Type JAK2 (Homo sapiens, UniProt O60674, F794H/W659A/W777A); assay: JAK2 LanthaScreen JH2-WT Binding Assay; settings: 50 nM Fluorescent JAK2-JH2 Tracer, 1 hour at 25° C.; read-out: JH2 BIND WT (EX. B)
T2 construct: JH2, amino-acids 536-812 with 3 surface mutations W659A, W777A, F794H; His (C); purchased BPS Bioscience 79463; host or cells: baculovirus expression system
Procedure: Example B. JAK2 LanthaScreen JH2-WT Binding Assay
as §1, with “JH2-WT” for “JH2-V617F”, “Wild Type” for “V617F mutant”, “#79463).” for “#79498).”, “JH2-WT (0.145” for “JH2-V617F (0.26”

[3] = biological target: T3, catalytic domain (JH1, amino acids 808-1132) of human JAK2 (Homo sapiens, UniProt O60674); assay: JAK2 HTRF Enzyme Activity Assay; format: biochemical; settings: ATP (30 μM or 1 mM; not stated which for the table), 60 minutes at 25° C.; read-out: JAK2 HTRF (Ex. D)
T3 construct: catalytic domain (JH1, amino acids 808-1132) of human JAK2; His (N); purchased BPS Bioscience 40450; host or cells: baculovirus expression system
Procedure: Example D. JAK2 HTRF Enzyme Activity Assay
JAK2 enzyme activity assays utilize catalytic domain (JH1, amino acids 808-1132) of human JAK2 expressed as N-terminal His-tagged protein in a baculovirus expression system (BPS Bioscience, Catalog #40450). The assays was conducted in black 384-well polystyrene plates in a final reaction volume of 20 μL. JAK2 (0.015 nM) was incubated with compounds (100 nL serially diluted in DMSO) in the presence of ATP (30 μM or 1 mM) and 500 nM Biotin-labeled EQEDEPEGDYFEWLE (SEQ ID NO.: 1) peptide (BioSource International, custom synthesis) in assay buffer (50 mM Tris, pH=7.5, 10 mM MgCl2, 0.01% Brij-35, 0.1% BSA, 1 mM EGTA, 5% Glycerol and 5 mM DTT) for 60 minutes at 25° C. The reactions were stopped by the addition of 10 μL of detection buffer (50 mM Tris, pH 7.8, 0.5 mg/mL BSA, 150 mM NaCl), supplemented with EDTA, LANCE Eu-W1024 anti-phosphotyrosine (PY20), (PerkinElmer, Catalog #AD0067) and Streptavidin SureLight APC (PerkinElmer Catalog #CR130-100), for a final concentration of 15 mM, 1.5 nM and 75 nM, respectively. HTRF signals were read after 30 minutes incubation at room temperature on a PHERAstar FS plate reader (BMG LABTECH). Data was analyzed with TDBS Xlfit and GraphPad Prism 5.0 software using a four parameter dose response curve to determine IC50 for each compound.

[4] = biological target: T4, catalytic domain (JH1, amino acids 826-1132) of human JAK2 (Homo sapiens, UniProt O60674); assay: JAK2 LanthaScreen JH1 Binding Assay; settings: 50 nM fluorescent JAK2-JH1 tracer, 2 hours at 25° C.; read-out: JH1 BIND (EX. A)
T4 construct: catalytic domain (JH1, amino acids 826-1132) of human JAK2; FLAG (N); purchased Carna Biosciences 08-445-20N; host or cells: baculovirus expression system
Procedure: Example A. JAK2 LanthaScreen JH1 Binding Assay
JAK2 JH1 binding assay utilizes catalytic domain (JH1, amino acids 826-1132) of human JAK2 expressed as N-terminal FLAG-tagged, biotinylated protein in a baculovirus expression system (Carna Biosciences, Product #08-445-20N). The assay was conducted in black 384-well polystyrene plates in a final reaction volume of 20 μL. JAK2 JH1 (1.5 nM) was incubated with compounds (100 nL serially diluted in DMSO) in the presence of 50 nM fluorescent JAK2-JH1 tracer and 0.5 nM Streptavidin-Tb cryptate (Cisbio Part #610SATLB) in assay buffer (50 mM Tris, pH=7.5, 10 mM MgCl2, 0.01% Brij-35, 0.1% BSA, 1 mM EGTA, 5% Glycerol and 5 mM DTT). Non-specific binding was accessed in the presence of 2 mM ATP. After incubation for 2 hours at 25° C., LanthaScreen signals were read on a PHERAstar FS plate reader (BMG LABTECH). Data was analyzed with IDBS Xlfit and GraphPad Prism 5.0 software using a four parameter dose response curve to determine IC50 for each compound.

T1 sequence (O60674 536-812 V617F/W659A/W777A/F794H): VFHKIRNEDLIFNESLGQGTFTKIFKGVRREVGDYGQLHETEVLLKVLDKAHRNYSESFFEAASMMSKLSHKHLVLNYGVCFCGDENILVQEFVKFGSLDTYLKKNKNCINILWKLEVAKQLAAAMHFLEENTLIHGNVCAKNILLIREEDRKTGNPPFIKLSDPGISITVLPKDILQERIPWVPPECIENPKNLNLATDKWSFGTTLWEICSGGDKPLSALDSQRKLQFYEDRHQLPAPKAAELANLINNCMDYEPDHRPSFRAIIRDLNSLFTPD
T3 sequence (O60674 808-1132): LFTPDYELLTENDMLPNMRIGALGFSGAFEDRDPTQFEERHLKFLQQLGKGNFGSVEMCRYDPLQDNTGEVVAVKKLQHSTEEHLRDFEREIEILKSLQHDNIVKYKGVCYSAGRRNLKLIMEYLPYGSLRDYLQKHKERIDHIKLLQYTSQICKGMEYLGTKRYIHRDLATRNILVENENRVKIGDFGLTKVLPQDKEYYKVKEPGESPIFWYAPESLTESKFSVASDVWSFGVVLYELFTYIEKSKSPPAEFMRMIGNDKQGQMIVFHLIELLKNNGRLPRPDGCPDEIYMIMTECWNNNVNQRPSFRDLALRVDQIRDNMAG
T4 sequence (O60674 826-1132): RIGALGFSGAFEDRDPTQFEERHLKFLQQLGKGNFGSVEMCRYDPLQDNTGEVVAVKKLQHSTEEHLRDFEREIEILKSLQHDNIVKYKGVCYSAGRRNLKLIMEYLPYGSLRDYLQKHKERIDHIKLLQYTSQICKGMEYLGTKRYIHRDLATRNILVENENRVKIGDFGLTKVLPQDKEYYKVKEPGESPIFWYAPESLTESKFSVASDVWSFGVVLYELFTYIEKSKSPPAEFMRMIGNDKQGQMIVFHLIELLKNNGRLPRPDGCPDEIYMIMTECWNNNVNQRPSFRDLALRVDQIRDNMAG
T2 sequence (O60674 536-812 W659A/W777A/F794H): as the sequence (O60674 536-812 V617F/W659A/W777A/F794H) above, with F82V counted along it

Compound | IC50 [1] [nM] | IC50 [2] [nM] | IC50 [3] [nM] | IC50 [4] [nM]
[2H]C([2H])([2H])n1c(=O)n([C@@H]2CC[C@@H](NC(=O)OC)C2)c2cc(Nc3cc(CO)c4cccc(C(F)(F)F)c4n3)ncc21 [Example 1, Methyl ((1R,3R)-3-(6-((4-(hydroxymethyl)-8-(trifluoromethyl)quinolin-2-yl)amino)-3-(methyl-d3)-2-oxo-2,3-dihydro-1H-imidazo[4,5-c]pyridin-1-yl)cyclopentyl)carbamate] | ≤ 10 | ≤ 10 | > 1000 | > 1000
[2H]C([2H])([2H])n1c(=O)n([C@@H]2CC[C@@H](NC(=O)OC)C2)c2cc(Nc3cc(C(C)O)c4cccc(C(F)(F)F)c4n3)ncc21 (stereo partly drawn) [Example 2, Methyl ((1R,3R)-3-(6-((4-(1-hydroxyethyl)-8-(trifluoromethyl)quinolin-2-yl)amino)-3-(methyl-d3)-2-oxo-2,3-dihydro-1H-imidazo[4,5-c]pyridin-1-yl)cyclopentyl)carbamate] | ≤ 10 | ≤ 10 | > 1000 | > 1000
[2H]C([2H])([2H])n1c(=O)n([C@@H]2CC[C@]([2H])(NC(=O)OC)C2)c2cc(Nc3cc(C(C)(C)O)c4cccc(C(F)(F)F)c4n3)ncc21 [Example 11, Methyl ((1S,3R)-3-(6-((4-(2-hydroxypropan-2-yl)-8-(trifluoromethyl)quinolin-2-yl)amino)-3-(methyl-d3)-2-oxo-2,3-dihydro-1H-imidazo[4,5-c]pyridin-1-yl)cyclopentyl-1-d)carbamate] | ≤ 10 |  | > 1000 | 
[2H]C([2H])([2H])n1c(=O)n([C@@H]2CC[C@@]([2H])(NC(=O)OC)C2)c2cc(Nc3cc(C(C)(C)O)c4cccc(C(F)(F)F)c4n3)ncc21 [Example 12, Methyl ((1R,3R)-3-(6-((4-(2-hydroxypropan-2-yl)-8-(trifluoromethyl)quinolin-2-yl)amino)-3-(methyl-d3)-2-oxo-2,3-dihydro-1H-imidazo[4,5-c]pyridin-1-yl)cyclopentyl-1-d)carbamate] | ≤ 10 |  | > 1000 | 
[2H]C([2H])([2H])n1c(=O)n([C@@H]2CC[C@](C)(NC(=O)OC)C2)c2cc(Nc3cc(C(C)(C)O)c4cccc(C(F)(F)F)c4n3)ncc21 [Example 13, Methyl ((1S,3R)-3-(6-((4-(2-hydroxypropan-2-yl)-8-(trifluoromethyl)quinolin-2-yl)amino)-3-(methyl-d3)-2-oxo-2,3-dihydro-1H-imidazo[4,5-c]pyridin-1-yl)-1-methylcyclopentyl)carbamate] | ≤ 10 |  | > 1000 | 
[2H]C([2H])([2H])n1c(=O)n([C@@H]2CC[C@](C)(NC(=O)OCCOC)C2)c2cc(Nc3cc(C(C)(C)O)c4cccc(C(F)(F)F)c4n3)ncc21 [Example 14, 2-Methoxyethyl ((1S,3R)-3-(6-((4-(2-hydroxypropan-2-yl)-8-(trifluoromethyl)quinolin-2-yl)amino)-3-(methyl-d3)-2-oxo-2,3-dihydro-1H-imidazo[4,5-c]pyridin-1-yl)-1-methylcyclopentyl)carbamate] | ≤ 10 |  | > 1000 | 
[2H]C([2H])([2H])n1c(=O)n(C23CCC(NC(=O)OC)(C2)C3)c2cc(Nc3cc(C(C)(C)O)c4cccc(C(F)(F)F)c4n3)ncc21 [Example 32, Methyl (4-(6-((4-(2-hydroxypropan-2-yl)-8-(trifluoromethyl)quinolin-2-yl)amino)-3-(methyl-d3)-2-oxo-2,3-dihydro-1H-imidazo[4,5-c]pyridin-1-yl)bicyclo[2.1.1]hexan-1-yl)carbamate] | ≤ 10 |  | > 1000 | 
[2H]C([2H])([2H])n1c(=O)n(C23CC(NC(=O)OC)(C2)C3)c2cc(Nc3ccc4cccc(C(F)(F)F)c4n3)ncc21 [Example 33, Methyl (3-(3-(methyl-d3)-2-oxo-6-((8-(trifluoromethyl)quinolin-2-yl)amino)-2,3-dihydro-1H-imidazo[4,5-c]pyridin-1-yl)bicyclo[1.1.1]pentan-1-yl)carbamate] | 10 to 100 |  | > 1000 | 
[2H]C([2H])([2H])n1c(=O)n([C@@H]2CC[C@@H](NC(=O)OC)C2)c2cc(Nc3cc(C(C)(C)O)c4cccc(C(C)(C)C#N)c4n3)ncc21 [Example 34, Methyl ((1R,3R)-3-(6-((8-(2-cyanopropan-2-yl)-4-(2-hydroxypropan-2-yl)quinolin-2-yl)amino)-3-(methyl-d3)-2-oxo-2,3-dihydro-1H-imidazo[4,5-c]pyridin-1-yl)cyclopentyl)carbamate] | 10 to 100 |  | > 1000 | 
[2H]C([2H])([2H])n1c(=O)n([C@@H]2CC[C@@]([2H])(NC(=O)OC)C2)c2cc(Nc3cc(C)c4nc(C)c(I)n4n3)ncc21 [Example 46, Methyl ((1R,3R)-3-(6-((3-iodo-2,8-dimethylimidazo[1,2-b]pyridazin-6-yl)amino)-3-(methyl-d3)-2-oxo-2,3-dihydro-1H-imidazo[4,5-c]pyridin-1-yl)cyclopentyl-1-d)carbamate] | ≤ 10 |  | > 1000 | 

From patent publication US20250304582A1, “Bicyclic Ureas As Kinase Inhibitors” (Incyte Corporation, priority 2024, published 2025)
